Results on 14 molecules are retold here after PubChem BioAssay (NCI).

Some test systems named below: MDA-N; HOP-92 NSCLC; IGROV1 ovarian; TK-10 renal; UO-31 renal; NCI-H522 lung; COLO 205 colon; HCT-116 colon; SNB-75 CNS; SR leukemia.
Test in all cases: NCI tumour cell line growth inhibition, 48 h

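Assay format: 96-well plates, 48-hour exposure. Definition used: TGI = concentration required for complete inhibition of growth.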

For the molecule `O=C(OCc1ccccc1)N1c2cc([N+](=O)[O-])ccc2C(=O)N2CCC[C@H]2C1O` (stereo partly drawn), the TGI in the test on MDA-N, in the test with HOP-92 NSCLC, in the test on IGROV1 ovarian, in the test on TK-10 renal, with UO-31 renal and in the test on NCI-H522 lung was above 100 µM throughout. The TGI with COLO 205 colon, in the test on HCT-116 colon, in the test with SNB-75 CNS and with SR leukemia was above 100 µM throughout.

As for `CC1CCC2(CC1)N=C1CCC(C)CC1C1(CCC(C)CC1)N2` (stereo not drawn), the TGI in the test on MDA-N, in the test with HOP-92 NSCLC, in the test with IGROV1 ovarian, with TK-10 renal, in the test on UO-31 renal and in the test with NCI-H522 lung was above 100 µM throughout. Further, the TGI in the test on COLO 205 colon, with HCT-116 colon, with SNB-75 CNS and in the test on SR leukemia was above 100 µM each time.

Take `CC(=O)NC1=CC(=O)c2cc(C)cc(O)c2C1=O`: the TGI in the test on MDA-N is 3.02 µM; in the test on HOP-92 NSCLC, 22.7 µM; with IGROV1 ovarian, 26.4 µM; in the test on TK-10 renal, 45.9 µM; in the test on UO-31 renal, 20 µM; in the test with NCI-H522 lung it was 20.2 µM. Further, the TGI with COLO 205 colon is 13.3 µM; with HCT-116 colon it was 16.3 µM; in the test on SNB-75 CNS it was 37 µM; in the test with SR leukemia, 37.3 µM.

With `COc1cc(C2S/C(=C/c3ccccc3)C(=O)N2c2cccc([N+](=O)[O-])c2)cc(OC)c1OC` (stereo not drawn), the TGI was 55.7 µM in the test on MDA-N; above 100 µM in the test with HOP-92 NSCLC; above 100 µM in the test on TK-10 renal; above 100 µM with UO-31 renal; above 100 µM in the test on NCI-H522 lung; above 100 µM in the test with COLO 205 colon. Also, the TGI with HCT-116 colon and with SR leukemia was above 100 µM each time.

As to `CCOc1cc(C2SCC(=O)N2c2nc3cc4sc(N5C(=O)CSC5c5ccc(O)c(OCC)c5)nc4cc3s2)ccc1O` (stereo not drawn), the TGI in the test with MDA-N is above 100 µM; in the test on HOP-92 NSCLC, above 88.6 µM; in the test with IGROV1 ovarian it was above 100 µM; in the test on TK-10 renal, above 100 µM; with UO-31 renal, above 100 µM; in the test on NCI-H522 lung, above 100 µM. Further, the TGI in the test on COLO 205 colon, in the test with HCT-116 colon, in the test on SNB-75 CNS and in the test with SR leukemia was above 100 µM in each case.

On to `Cn1ccc(C(=O)NCCCCCNC(=O)c2ccn(C)c(=O)c2O)c(O)c1=O`, for which the TGI with MDA-N, in the test with HOP-92 NSCLC, with TK-10 renal, with UO-31 renal, in the test with NCI-H522 lung and in the test on COLO 205 colon was above 100 µM in each case. Moreover, the TGI with HCT-116 colon and in the test on SR leukemia was above 100 µM throughout.

On to `O=C(/C=C/c1ccccc1O)/C=C/c1ccccc1O`, for which the TGI worked out at 3.93 µM in the test on MDA-N; 4.87 µM with HOP-92 NSCLC; 3.31 µM with IGROV1 ovarian; 3.27 µM with TK-10 renal; 3.59 µM in the test with UO-31 renal; 3.4 µM in the test with COLO 205 colon. Moreover, the TGI in the test with HCT-116 colon is 1.23 µM; in the test on SNB-75 CNS, 19.5 µM; in the test with SR leukemia it was above 100 µM.

Consider `Nc1c(S(=O)(=O)O)cc(Nc2cccc(S(=O)(=O)/C=C/S(=O)(=O)O)c2)c2c1C(=O)c1ccccc1C2=O`, for which the TGI in the test on MDA-N, in the test on HOP-92 NSCLC, with IGROV1 ovarian, in the test on TK-10 renal, with NCI-H522 lung and in the test with COLO 205 colon was above 100 µM in each case. For the same molecule, the TGI in the test with HCT-116 colon, in the test with SNB-75 CNS and in the test on SR leukemia was above 100 µM throughout.

Consider `c1ccc(C2=C(c3ccccc3)P(c3ccccc3)C2)cc1` (stereo not drawn), for which the TGI with MDA-N, in the test on HOP-92 NSCLC, in the test on IGROV1 ovarian, with TK-10 renal, in the test on NCI-H522 lung and with COLO 205 colon was above 100 µM in each case. Moreover, the TGI in the test with HCT-116 colon, with SNB-75 CNS and in the test with SR leukemia was above 100 µM throughout.

As to `COc1cc2c(cc1Cl)n([O-])c(C#N)c(N1CCN(c3ccc([N+](=O)[O-])cc3)CC1)[n+]2=O`, the TGI is above 100 µM in the test with MDA-N; 8.29 µM in the test on IGROV1 ovarian; above 100 µM in the test on TK-10 renal; above 100 µM in the test on UO-31 renal; 41.6 µM in the test on NCI-H522 lung; above 100 µM with COLO 205 colon. Moreover, the values for the TGI in the test with HCT-116 colon, in the test on SNB-75 CNS and in the test with SR leukemia were above 100 µM, above 70.6 µM and above 30.7 µM, respectively.

Regarding `O=C(c1ccccc1)N1C(=S)N(c2ccc([N+](=O)[O-])cc2)C(=Nc2ccccc2)C1=Nc1ccccc1`, the TGI with MDA-N, with HOP-92 NSCLC, in the test with IGROV1 ovarian, in the test on TK-10 renal, with UO-31 renal and with NCI-H522 lung was above 100 µM each time. For the same molecule, the TGI in the test on COLO 205 colon, in the test with SNB-75 CNS and in the test with SR leukemia was above 100 µM each time.

For the molecule `O=C1/C(=C/c2ccco2)NC(=S)N1CN1CCOCC1`, the TGI in the test with MDA-N, with HOP-92 NSCLC, in the test with IGROV1 ovarian, in the test with TK-10 renal, in the test with UO-31 renal and in the test on COLO 205 colon was above 100 µM throughout. Besides, the TGI in the test with HCT-116 colon, in the test with SNB-75 CNS and in the test with SR leukemia was above 100 µM each time.

Turning to `O=C(CCCn1ccnc1[N+](=O)[O-])NCCn1ccnc1[N+](=O)[O-]`, the TGI with MDA-N, in the test on IGROV1 ovarian, in the test with TK-10 renal, in the test on UO-31 renal, in the test on NCI-H522 lung and with COLO 205 colon was above 100 µM in each case. For the same molecule, the TGI in the test with HCT-116 colon, with SNB-75 CNS and in the test with SR leukemia was above 100 µM each time.

As for `CN(C)CCn1c(=O)c2ccc3c4c(nn3CCN(C)C)c3ccccc3n(c1=O)c24`, the TGI in the test with MDA-N came to 0.97 µM; in the test with IGROV1 ovarian it was 1.92 µM; in the test on TK-10 renal, 2.35 µM; with UO-31 renal, 2.42 µM; in the test on NCI-H522 lung, 0.329 µM; in the test on COLO 205 colon, 0.985 µM. The TGI worked out at 2.22 µM with HCT-116 colon, 0.145 µM with SNB-75 CNS and 1.85 µM in the test with SR leukemia.
